Assay: xn = mol fraction of the nth substance listed
Settings: 263.15 K, Fluid (supercritical or subcritical phases), Vibrating tube method, x1 = 0.97

O=C=O [carbon dioxide] + CO
Settings	mass density [kg/m3]
13625 kPa	1031.69
13650 kPa	1031.77
13675 kPa	1031.94
13700 kPa	1031.97
13725 kPa	1032.1
13750 kPa	1032.18
13775 kPa	1032.26
13800 kPa	1032.34
13825 kPa	1032.42
13850 kPa	1032.53
13875 kPa	1032.61
13900 kPa	1032.75
13925 kPa	1032.83
13950 kPa	1032.91
13975 kPa	1032.99
14000 kPa	1033.08
14025 kPa	1033.16
14050 kPa	1033.24
14075 kPa	1033.38
14100 kPa	1033.48
14125 kPa	1033.57
14150 kPa	1033.65
14175 kPa	1033.73
14200 kPa	1033.81
14225 kPa	1033.9
14250 kPa	1033.97
14275 kPa	1034.13
14300 kPa	1034.22
14325 kPa	1034.3
14350 kPa	1034.38
14375 kPa	1034.46
14400 kPa	1034.54
14425 kPa	1034.62
14450 kPa	1034.7
14475 kPa	1034.86
14500 kPa	1034.95
14525 kPa	1035.03
14550 kPa	1035.11
14575 kPa	1035.19
14600 kPa	1035.28
14625 kPa	1035.36
14650 kPa	1035.44
14675 kPa	1035.52
14700 kPa	1035.62
14725 kPa	1035.77
14750 kPa	1035.83
14775 kPa	1035.93
14800 kPa	1036.01
14825 kPa	1036.09
14850 kPa	1036.17
14875 kPa	1036.25
14900 kPa	1036.34
14925 kPa	1036.42
14950 kPa	1036.51
14975 kPa	1036.63
15000 kPa	1036.74
15025 kPa	1036.78
15050 kPa	1036.9
15075 kPa	1036.96
15100 kPa	1037.07
15125 kPa	1037.15
15150 kPa	1037.23
15175 kPa	1037.31
15200 kPa	1037.39
15225 kPa	1037.5
15250 kPa	1037.56
15275 kPa	1037.66
15300 kPa	1037.72
15325 kPa	1037.8
15350 kPa	1037.91
15375 kPa	1038.01
15400 kPa	1038.07
15425 kPa	1038.19
15450 kPa	1038.28
15475 kPa	1038.37
15500 kPa	1038.45
15525 kPa	1038.53
15550 kPa	1038.61
15575 kPa	1038.7
15600 kPa	1038.78
15625 kPa	1038.86
15650 kPa	1038.94
15675 kPa	1039.02
15700 kPa	1039.1
15725 kPa	1039.19
15750 kPa	1039.26
15775 kPa	1039.35
15800 kPa	1039.43
15825 kPa	1039.51
15850 kPa	1039.61
15875 kPa	1039.7
15900 kPa	1039.79
15925 kPa	1039.88
15950 kPa	1039.97
15975 kPa	1040.06
16000 kPa	1040.16
16025 kPa	1040.2
16050 kPa	1040.31
16075 kPa	1040.4
16100 kPa	1040.49
16125 kPa	1040.57
16150 kPa	1040.65
16175 kPa	1040.73
16200 kPa	1040.81
16225 kPa	1040.89
16250 kPa	1040.97
16275 kPa	1041.05
16300 kPa	1041.16
16325 kPa	1041.25
16350 kPa	1041.32
16375 kPa	1041.38
16400 kPa	1041.46
16425 kPa	1041.59
16450 kPa	1041.66
16475 kPa	1041.72
16500 kPa	1041.79
16525 kPa	1041.91
16550 kPa	1041.95
16575 kPa	1042.08
16600 kPa	1042.19
16625 kPa	1042.27
16650 kPa	1042.33
16675 kPa	1042.38
16700 kPa	1042.51
16725 kPa	1042.57
16750 kPa	1042.68
16775 kPa	1042.75
16800 kPa	1042.82
16825 kPa	1042.91
16850 kPa	1043.01
16875 kPa	1043.08
16900 kPa	1043.17
16925 kPa	1043.24
16950 kPa	1043.33
16975 kPa	1043.4
17000 kPa	1043.49
17025 kPa	1043.57
17050 kPa	1043.64
17075 kPa	1043.74
17100 kPa	1043.82
17125 kPa	1043.9
17150 kPa	1043.98
17175 kPa	1044.06
17200 kPa	1044.14
17225 kPa	1044.22
17250 kPa	1044.31
17275 kPa	1044.39
17300 kPa	1044.44
17325 kPa	1044.55
17350 kPa	1044.63
17375 kPa	1044.71
17400 kPa	1044.79
17425 kPa	1044.87
17450 kPa	1044.94
17475 kPa	1045.04
17500 kPa	1045.12
17525 kPa	1045.2
17550 kPa	1045.28
17575 kPa	1045.33
17600 kPa	1045.44
17625 kPa	1045.52
17650 kPa	1045.61
17675 kPa	1045.69
17700 kPa	1045.77
17725 kPa	1045.81
17750 kPa	1045.89
17775 kPa	1045.97
17800 kPa	1046.04
17825 kPa	1046.11
17850 kPa	1046.26
17875 kPa	1046.32
17900 kPa	1046.37
17925 kPa	1046.44
17950 kPa	1046.51
17975 kPa	1046.58
18000 kPa	1046.66
18025 kPa	1046.79
18050 kPa	1046.85
18075 kPa	1046.9
18100 kPa	1046.98
18125 kPa	1047.07
18150 kPa	1047.15
18175 kPa	1047.23
18200 kPa	1047.31
18225 kPa	1047.37
18250 kPa	1047.47
18275 kPa	1047.55
18300 kPa	1047.62
18325 kPa	1047.69
18350 kPa	1047.75
18375 kPa	1047.82
18400 kPa	1047.88
18425 kPa	1047.96
18450 kPa	1048.04
18475 kPa	1048.11
18500 kPa	1048.2
18525 kPa	1048.28
18550 kPa	1048.31
18575 kPa	1048.43
18600 kPa	1048.53
18625 kPa	1048.58
18650 kPa	1048.64
18675 kPa	1048.74
18700 kPa	1048.83
18725 kPa	1048.85
18750 kPa	1048.93
18775 kPa	1048.93
18800 kPa	1049.06
18825 kPa	1049.09
18850 kPa	1049.34
18875 kPa	1049.42
18900 kPa	1049.5
18925 kPa	1049.58
18950 kPa	1049.66
18975 kPa	1049.74
19000 kPa	1049.82
19025 kPa	1049.91
19050 kPa	1049.99
19075 kPa	1050.07
19100 kPa	1050.15
19125 kPa	1050.23
19150 kPa	1050.31
19175 kPa	1050.39
19200 kPa	1050.47
19225 kPa	1050.56
19250 kPa	1050.63
19275 kPa	1050.72
19300 kPa	1050.8
19325 kPa	1050.88
19350 kPa	1050.96
19375 kPa	1051.04
19400 kPa	1051.12
19425 kPa	1051.21
19450 kPa	1051.29
19475 kPa	1051.35
19500 kPa	1051.45
19525 kPa	1051.53
19550 kPa	1051.58
19575 kPa	1051.69
19600 kPa	1051.77
19625 kPa	1051.83
19650 kPa	1051.89
19675 kPa	1052.02
